Measured values reported in patent US20250161295A1, “EXATECAN FORMULATION” (Yale University, priority 2022, published 2025).
Where a name gives a salt, the structure may show the parent alone.

Tests used:
[1] = tested on: PDVC57 cells (SCC tumors); test: Single intratumoral injection of water-based exatecan mesylate formulation in mouse model of SCC (Example 3); type: in vivo, C57BL/6J mice
Method: Six-week old female C57BL/6J mice were used in this study.
PDVC57 cells were developed in, and obtained from, the laboratory of Dr. Allan Balmain (Quintanilla, et al., Carcinogenesis 1991, 12 (10), 1875-1881). Mice were anesthetized with avertin and their flanks shaved. The mice were then given an intradermal injection with of 5 million PDVC57 cells in suspension in 100 μL PBS. A 1 cc syringe fitted with a 27 g needle was used for the intradermal injection.
Seven days following tumor cell inoculation, the mice were given either a single intratumoral injection of 10 mg/mL exatecan mesylate in ultrapure distilled water (Invitrogen, Catalog #10977-015) or a vehicle injection using a BD insulin syringe (30-gauge×8 mm needle; #328468). The vehicle was invitrogen UltraPure Distilled Water #10977-015. The treatment volume was 0.02 mL.
Mice were sedated. Calipers were used to measure tumor diameter. Tumor volume was calculated from micrometer measurements using the following formula: […]
When tumors reached the endpoint, i.e., tumor volume of 1 cm^3, mice were euthanized by isoflurane inhalation and tumors dissected away from subcutaneous tissue. Isolated tumors were bisected along the longest axis, fixed in 10% neutral buffered fonnalin and submitted to Yale Research Pathology for embedding, sectioning, and H&E staining. Resulting slides were scanned using a Zeiss AxioObserver Z1 with TissueGnostics TissueFAXS software. Images were analyzed using Fiji software.
In a first experiment, 20 mice with tumors ranging in size from 45-85 mm^3 were examined. The group size was 10. Ten of the mice were given a single injection of a water-based formulation containing exatecan mesylate (10 mg/mL), while the other 10 mice received a vehicle injection of ultrapure DI water and served as the control group. For each group (experimental group or control), half of the mice were harvested 16 days post-treatment for histological assessment, the other half were harvested 32 days post-treatment if they had discernible tumors or monitored until day 66 if no palpable tumors were observed.

[2] = tested on: PDVC57 cells (SCC tumors); test: Single intratumoral injection of water-based exatecan mesylate formulation, followed to endpoint tumor volume 1 cm^3 (Example 4); type: in vivo, C57BL/6J mice
Method: In a second experiment, 15 mice with tumors ranging in size from 50-100 mm^3, calculated as described above, were examined.
PDVC57 cells were injected into 6-week-old female C57BL/6J mice. Treatment was administered by a single intratumoral injection seven days after tumor cell inoculation. Intratumoral injection was performed using BD insulin syringe (30-gauge×8 mm needle; #328468). The vehicle was Invitrogen UltraPure Distilled Water #10977-015.
The experimental group received 10 mg/mL exatecan. The treatment volume was 0.02 mL. Ten of the mice were given a single injection of a water-based formulation containing exatecan mesylate while the other 5 mice received a vehicle injection of ultrapure DI water and served as the control group. These mice were observed until the endpoint at which their tumor volume was 1 cm^3. […]

[3] = tested on: SCC tumors (PDVC57 cells); test: Intratumoral injection of exatecan in PDVC57 SCC tumors (Example 1, Experiments 1 and 2): tumor outcome; type: in vivo, C57BL/6J mice; conditions: EXA 0.2 mg single intratumoral injection; of 6 mice harvested (4 not harvested)
[4] = Intratumoral injection of exatecan (Example 1): toxicity
Method: (§2) SCC tumors were established by subcutaneous injection of 5 million PDVC57 cells into the right flank of syngeneic C57BL/6J mice. Seven days later, when tumors ranged from 4.5-5.5 mm in diameter, mice were evenly distributed among the treatment groups (N=5-10 mice/group, see below) and received intratumoral injections of vehicle (dH2O) or exatecan.
(§3) A 0.5-mL 31 G syringe (BD Insulin Syringe #328468) was used to deliver 0.1 mg or 0.2 mg exatecan in a 20-microliter volume, or 0.4 mg in a 40-microliter volume (because of solubility limitations). Control groups received an equal volume of sterile dH2O. The needle was placed into the tumor and the appropriate volume was slowly injected (approximately over 5 sec). The needle was held in place for 10 seconds after the injection was complete, then slowly removed while maintaining finger pressure on the injection site.

[5] = Dissolution of exatecan mesylate in sterile dH2O (stock preparation); type: physicochemical
Method: (§1) Exatecan mesylate (“EXA”) (DX895If; MedChemExpress #HY-13631A) was dissolved in sterile dH20 (Invitrogen 10977-023) to prepare a 5 mg/mL or a 10 mg/mL stock solution. […] The concentration was confirmed by HPLC and further dilutions prepared as needed in sterile dH2O.

[6] = tested on: PDVC57 cells (SCC tumors); test: Titrated doses of a single injection of water-based exatecan mesylate formulation on tumor size (Example 5); type: in vivo, C57BL/6J mice
Method: In a third experiment, 15 mice (i.e., five groups each containing three mice) with tumors ranging in size 59-80 mm^3, calculated as described above, were examined. PDVC57 cells were injected into 6-week-old female C57BL/6J mice. Treatment was administered seven days after tumor cell inoculation. Intratumoral injection performed using BD insulin syringe (30-gauge×8 mm needle; #328468). Mice were randomly assigned to one of five groups and were given a single intratumoral injection of either the vehicle (UltraPure Distilled Water, Invitrogen, #10977-015) or one of the following concentrations of the water-based formulation containing exatecan mesylate: 10 mg/mL, 5 mg/mL, 2.5 mg/mL or 1.25 mg/mL for a total treatment volume of 0.02 mL. All the mice were harvested 14 days post treatment for histological assessments.

[7] = tested on: SCC tumors (PDVC57 cells); test: Intratumoral injection of exatecan in PDVC57 SCC tumors (Example 1, Experiments 1 and 2): tumor outcome; type: in vivo, C57BL/6J mice
Method: as §1
Control groups received an equal volume of sterile dH2O.
16 days post-treatment, when the first vehicle control tumors reached 1 cm in one dimension, half (N=5) of each group was harvested for histology: tumors were measured, ranked by volume (V=(½)(W^2×L)), and every-other one harvested (#1, 3, 5, 7, and 9 were harvested and #2, 4, 6, 8, and 10 were not).

ID8-Luc tumor cells = test: BNP-111 in vivo efficacy in ID8 ovarian cancer model (IVIS tumor burden); design: species or system C57Bl/6 mice; conditions: 2.5 mpk i.p. once weekly x4; day 56
Method: Luciferase expressing ID8-Luc tumor cells were washed twice in sterile PBS, resuspended in sterile PBS and a 1 ml 27 G syringe used to inject 1 million cells intraperitoneally (i.p.) into syngeneic female C57Bl/6 mice.

[8] = mouse, in vivo
Method: as §2, §3

[9] = pH-dependent exatecan mesylate solubility in phosphate buffers (precipitate rating); type: physicochemical; design: key to Precipitate rating (Yes/No): Precipitate rating “Yes” means visible precipitate observed at 10× magnification; “No” means no visible precipitate observed at 10× magnification
Method: Materials and methods A water-based formulation was made containing exatecan mesylate at a concentration of 10 mg/mL exatecan mesylate in water (Invitrogen UltraPure Distilled Water #10977-015). Phosphate buffers A and B were made by dissolving either 1M potassium phosphate monobasic (KH2PO4) for buffer A or 1M potassium phosphate dibasic ([…]) for buffer B in distilled water. Solutions with pH values ranging between 4.3 and 9.6 were prepared by mixing buffer A (pH 4.3) with buffer B (pH 9.6) at pre-determined percentages. A pH meter was used to confirm the pH of the resulting phosphate buffer solutions by dipping the electrode into the solution.
To determine the pH solubility of the water-based formulation, 5 μL of the 10 mg/mL EXA in DI water was added to 100 μL 1M phosphate buffer at varying pH levels in a 96-well plate to produce a final concentration of […] EXA per milliliter. The solubility tests were conducted at pH 4.30 (0% buffer B), pH 5.6 (10% buffer B), pH 6.1 (20% buffer B), pH 6.4 (30% buffer B), pH 6.7 (40% buffer B), pH 7.0 (50% buffer B), pH 7.2 (60% buffer B), pH 7.5 (70% buffer B), pH 7.8 (80% buffer B), pH 8.2 (90% buffer B) and pH 9.6 (100% buffer B). Precipitation was assessed and images of the precipitate at the bottom of the 96-well plate were taken after 1 hour.

[10] = 10 mg/mL, 0.02 mL single injection

CC[C@@]1(O)C(=O)OCc2c1cc1n(c2=O)Cc2c-1nc1cc(F)c(C)c3c1c2[C@@H](N)CC3 [EXA, Exatecan mesylate]
Mice remaining (day 66 post-treatment), no palpable tumor [1, 10]: 4 - no
Tumor incidence overall [1, 10]: (20%)
Tumor incidence overall (mice) [1, 10]: 2 of 10
Day 32 harvest for histology: tumor in ([1]; 10 mg/mL, 0.02 mL single injection, 4 mice not harvested): 1 of 1. 4
% of mice that eliminated their tumor ([1]; 10 mg/mL, 0.02 mL single injection, assessed at day 16 and day 66): 80%
Day 16 harvest for histology: tumor in ([1]; 10 mg/mL, 0.02 mL single intratumoral injection): 1 of 5
Histological assessment: mice with no discernible tumor ([1]; 5 mice per group): 4 out of 5
Inflammation of surrounding tissue compared to vehicle-treated mice ([1]; single dose, histology): decreased inflammation
Tissue damage ([1]; single dose, histology): minimal tissue damage
Mice with tumors that reached endpoint volume (1 cm^3) ([2]; 10 mg/mL, 0.02 mL single injection, through day 77): 4 of 10
Mantel-Cox log rank test p (survival vs dH2O vehicle) ([2]; 77 days post-treatment, 10 mg/mL, 0.02 mL): < 0.0001
Cure ([2]; Day 77 post-treatment): 60%
Mice remaining with no palpable tumor ([2]; Day 77 post-treatment): 6 of the 10
Mice with a large tumor (clinical images) ([2]; day 22 post-treatment, 10 mg/mL, 0.02 mL): 1 of 10
Time at which tumors reached endpoint volume ([2]; the 4 mice that reached 1 cm^3): 34-52 days post-treatment
Histology (N): mice with tumor [3]: Tumor in 2
Toxicity (summary) ([4]; 0.4 mg per animal): lethality
Toxicity: number of mice in which lethal ([4]; EXA 0.1 mg x2 (day 0 and day 3), of 9 mice): Lethal in 2 of
Toxicity: number of mice in which lethal ([4]; EXA 0.4 mg single injection, of 8 mice): Lethal in 7 of
Dissolution in sterile dH2O ([5]; 10 mg/mL stock): warming to 60 °C plus sonication and vortexing were needed
Dissolution in sterile dH2O ([5]; at 5 mg/mL): dissolves immediately
Tumor size compared to vehicle ([6]; 2.5 mg/mL, 0.02 mL, 14 days): almost complete reduction in tumor size
Tumor size compared to vehicle ([6]; 5 mg/mL, 0.02 mL, 14 days): almost complete reduction in tumor size
Tumor size compared to 1.25 mg/mL and vehicle ([6]; 10 mg/mL, 0.02 mL, 14 days): significantly reduced tumors
Tumor size compared to vehicle ([6]; all doses administered (10, 5, 2.5, 1.25 mg/mL; 0.02 mL), 14 days post treatment): reduced tumor size
Mice whose tumor progressed to 1 cm ([7]; 0.2 mg, the five mice not harvested on day 16): one of the remaining five
Efficacy of treatment (summary) ([7]; 0.2-mg dose per animal): very effective
Tumor incidence ([7]; EXA 0.1 mg x2): 57%
Tumor incidence (mice) ([7]; EXA 0.1 mg x2): 4 of 7
Mice remaining (days post-treatment), no palpable tumor ([7]; EXA 0.1 mg x2, day 36): 2 (day 36) -
Histology (N): mice with tumor ([7]; EXA 0.1 mg x2, of 5 mice harvested (2 not harvested)): Tumor in 4
Tumor incidence ([7]; EXA 0.2 mg single injection, N=10): 20%
Mice remaining (days post-treatment), no palpable tumor ([7]; EXA 0.2 mg single injection, day 53): 4 (day 53) -
Mice remaining (days post-treatment), no palpable tumor ([7]; EXA 0.2 mg single injection, day 53, listed as exatecan): four
Mice remaining (days post-treatment), no palpable tumor ([7]; EXA 0.4 mg single injection, day 36): 1 (day 36) -
Efficacy compared with single 0.2 mg dose ([7]; two doses of 0.1 mg per animal separated by 3 days): less effective
Reduction of tumor burden (photon flux) (ID8-Luc tumor cells): 62.16%
Tolerability compared with single 0.2 mg dose [8]: less well tolerated
pH at which enhanced precipitation and decrease in solubility is shown ([9]; 1M phosphate buffer): ≥ 7.12
Precipitate rating (Yes/No) ([9]; Control (distilled water), 0% buffer A, 0% buffer B, pH 7): No
Onset of precipitation after addition to phosphate buffer ([9]; EXA/DI water mixture added to phosphate buffer): generally immediate
Precipitate rating (Yes/No) ([9]; Sample 1: 100% buffer A, 0% buffer B, pH 4.3): No
Precipitate rating (Yes/No) ([9]; Sample 2: 90% buffer A, 10% buffer B, pH 5.6): No
Precipitate rating (Yes/No) ([9]; Sample 3: 80% buffer A, 20% buffer B, pH 6.1): No
Precipitate rating (Yes/No) ([9]; Sample 4: 70% buffer A, 30% buffer B, pH 6.4): No
Precipitate rating (Yes/No) ([9]; Sample 5: 60% buffer A, 40% buffer B, pH 6.7): Yes
Precipitate rating (Yes/No) ([9]; Sample 6: 50% buffer A, 50% buffer B, pH 7.0): Yes
Precipitate rating (Yes/No) ([9]; Sample 7: 40% buffer A, 60% buffer B, pH 7.2): Yes
Precipitate rating (Yes/No) ([9]; Sample 8: 30% buffer A, 70% buffer B, pH 7.5): Yes
Precipitate rating (Yes/No) ([9]; Sample 9: 20% buffer A, 80% buffer B, pH 7.8): Yes
Precipitate rating (Yes/No) ([9]; Sample 10: 10% buffer A, 90% buffer B, pH 8.2): Yes
Precipitate rating (Yes/No) ([9]; Sample 11: 0% buffer A, 100% buffer B, pH 9.6): Yes
